The values below come from ChEMBL document CHEMBL4619803, “Stepwise Design of γ-Secretase Modulators with an Advanced Profile by Judicious Coordinated Structural Replacements and an Unconventional Phenyl Ring Bioisostere” (J Med Chem, 2020).

As a reminder, the fraction unbound is free concentration divided by total concentration. A higher fraction unbound goes with weak binding. What is called pIC50 is the IC50 on a negative log10 scale, so that one unit is a factor of ten. In general, logD refers to lipophilicity at a set pH, counting ionised and neutral species. Lower therefore signals a more hydrophilic compound. A word on the solubility: it is how much of the substance goes into solution per volume. Low values mean a poorly soluble substance, high ones a readily soluble substance. The IC20 is the point of the concentration-response curve where the effect stands at 20%. A higher IC20 goes with a need for much substance. Usually pKd stands for the negative decadic logarithm of the Kd, by convention in mol/L. Lower therefore signals a high Kd. As a reminder, the clearance is a measure of how efficiently the substance is removed, as volume per time. Low values mean a low capacity for elimination, high ones a high capacity for elimination. As a reminder, the bioavailability is the share of a dose that reaches the circulation, judged against a reference dose that is usually intravenous. Lower therefore signals little systemic uptake.

pIC50, pKd: −log10 of the molar value. Converted amounts (≈) assume the structure as drawn.

Data set [1] is described as follows: Fraction unbound in human plasma. Format: ADME, cell-free.
Data set [2] is described as follows: Fraction unbound in mouse plasma. Format: ADME, cell-free.
Data set [3] addresses Gamma-secretase (Homo sapiens) (UniProt Q96BI3+Q9NZ42+Q8WW43+P49768+Q92542+P49810). Briefly: (§1) Modulation of gamma secretase in human H4 cells over expressing human APP695 harboring K595N/M596L Swedish double mutant assessed as reduction in Abeta42 production after 24 hrs by Alphalisa assay. The class given is cell-based. For orientation: Bead proximity is the source of the signal in Alpha formats.

In another data set the target is Gamma-secretase. Described as §1. Format: cell-based.
The nature of data set [4]: (§2) Modulation of mouse gamma secretase assessed as reduction in Abeta42 production.
The species named for data set [5] is Mus musculus. The data set is described as §2.
Data set [6] is described as follows: Octanol/water distribution co-efficient, log D of the compound at pH 7.4. Format: physicochemical.
Data set [7] is described as follows: Solubility of compound by lyophilisation solubility assay. The class given is physicochemical.
Data set [8] in a line: Clearance in human hepatocytes assessed per million cells. The class given is ADME, cell-based, Hepatocyte. To be noted: read-out: CLH.
A short description of data set [9]: Clearance in mouse hepatocytes assessed per million cells. The class given is ADME, cell-based, Hepatocyte. As to conditions: read-out: CLH.
Data set [10] has as its target Voltage-gated inwardly rectifying potassium channel KCNH2 (Homo sapiens, UniProt Q12809). Nature of the data set: (§3) Inhibition of human ERG.
In the next data set the target is hERG (KCNH2) (Homo sapiens, UniProt Q12809). The description is as §3. As to conditions: human.
hERG (KCNH2), sequence (Q12809 whole entry): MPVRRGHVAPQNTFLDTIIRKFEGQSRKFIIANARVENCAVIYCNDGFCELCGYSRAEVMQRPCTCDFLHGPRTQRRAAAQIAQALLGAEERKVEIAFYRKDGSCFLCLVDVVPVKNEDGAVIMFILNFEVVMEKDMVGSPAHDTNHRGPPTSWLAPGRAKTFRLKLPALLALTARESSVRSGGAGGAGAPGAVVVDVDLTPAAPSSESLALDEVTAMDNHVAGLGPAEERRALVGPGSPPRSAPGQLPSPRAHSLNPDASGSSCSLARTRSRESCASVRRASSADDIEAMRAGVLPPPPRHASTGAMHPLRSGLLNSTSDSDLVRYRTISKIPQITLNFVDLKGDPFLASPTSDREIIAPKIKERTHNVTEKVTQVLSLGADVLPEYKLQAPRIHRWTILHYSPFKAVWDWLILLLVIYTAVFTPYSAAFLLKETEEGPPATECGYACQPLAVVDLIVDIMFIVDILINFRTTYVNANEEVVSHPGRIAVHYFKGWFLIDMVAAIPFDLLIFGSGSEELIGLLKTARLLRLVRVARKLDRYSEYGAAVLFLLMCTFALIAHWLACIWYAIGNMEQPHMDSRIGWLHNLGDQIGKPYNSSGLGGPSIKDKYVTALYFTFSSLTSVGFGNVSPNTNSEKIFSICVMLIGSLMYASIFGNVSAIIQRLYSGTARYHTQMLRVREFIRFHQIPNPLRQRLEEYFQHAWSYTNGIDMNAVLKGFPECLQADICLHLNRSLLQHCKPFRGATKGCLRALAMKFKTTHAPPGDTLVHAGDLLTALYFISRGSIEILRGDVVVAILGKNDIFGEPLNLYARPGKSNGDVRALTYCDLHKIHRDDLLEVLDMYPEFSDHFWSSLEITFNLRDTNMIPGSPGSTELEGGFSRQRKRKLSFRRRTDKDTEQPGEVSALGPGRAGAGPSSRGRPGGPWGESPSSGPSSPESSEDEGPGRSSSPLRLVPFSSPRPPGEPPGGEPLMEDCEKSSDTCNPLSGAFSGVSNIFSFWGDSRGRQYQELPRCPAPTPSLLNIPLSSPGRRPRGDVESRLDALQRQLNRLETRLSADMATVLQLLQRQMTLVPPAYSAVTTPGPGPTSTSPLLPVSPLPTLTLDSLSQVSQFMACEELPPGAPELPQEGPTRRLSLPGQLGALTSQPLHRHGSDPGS
The target in data set [11] is Phosphatidylinositol 4-kinase beta (Homo sapiens, UniProt Q9UBF8). Briefly: Binding affinity to PIK4CB (unknown origin). Format: ADME.
Phosphatidylinositol 4-kinase beta, sequence (Q9UBF8 whole entry): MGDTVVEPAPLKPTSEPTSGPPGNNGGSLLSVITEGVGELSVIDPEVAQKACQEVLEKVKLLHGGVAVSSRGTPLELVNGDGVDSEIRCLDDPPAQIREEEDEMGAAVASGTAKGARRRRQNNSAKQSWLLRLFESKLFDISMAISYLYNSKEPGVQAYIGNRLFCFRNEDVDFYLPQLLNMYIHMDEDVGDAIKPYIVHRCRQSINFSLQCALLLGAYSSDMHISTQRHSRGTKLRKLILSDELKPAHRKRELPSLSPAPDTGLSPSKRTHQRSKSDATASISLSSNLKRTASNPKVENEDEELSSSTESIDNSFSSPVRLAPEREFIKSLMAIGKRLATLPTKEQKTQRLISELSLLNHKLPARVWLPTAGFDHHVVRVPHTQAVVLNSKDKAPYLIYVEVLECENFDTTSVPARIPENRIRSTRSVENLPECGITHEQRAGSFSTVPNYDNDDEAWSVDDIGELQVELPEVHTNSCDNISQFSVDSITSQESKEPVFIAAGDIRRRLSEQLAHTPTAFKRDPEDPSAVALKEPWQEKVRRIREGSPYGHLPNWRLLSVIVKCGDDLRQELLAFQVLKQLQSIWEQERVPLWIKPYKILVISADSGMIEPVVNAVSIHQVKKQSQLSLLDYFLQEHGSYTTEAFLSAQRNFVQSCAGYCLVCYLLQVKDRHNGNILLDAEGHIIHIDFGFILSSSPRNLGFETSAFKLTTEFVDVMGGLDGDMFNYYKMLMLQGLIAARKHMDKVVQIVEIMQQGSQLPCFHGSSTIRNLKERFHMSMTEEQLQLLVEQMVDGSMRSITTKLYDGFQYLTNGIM
Data set [12] is described as follows: Fraction unbound in rat plasma. Format: ADME, cell-free.
The nature of data set [13]: Clearance in rat hepatocytes assessed per million cell. To be noted: read-out: CLH. Format: ADME, cell-based, Hepatocyte.
The nature of data set [14]: Mutagenicity in Salmonella typhimurium by Ames test. As to conditions: salmonella enterica subsp. enterica serovar typhimurium. Format: toxicity. Background: The Ames test uses bacterial strains that need an amino acid and regain growth without it when mutated back.
The nature of data set [15]: Solubility of the compound in fasted state simulated intestinal fluid. Format: physicochemical. To be noted: simulated gi fluid.
Data set [16] can be described thus: Solubility in fed state simulated intestinal fluids. The class given is physicochemical. As to conditions: simulated gi fluid.
For a further data set, the system named is Keratinocyte. Nature of the data set: Phototoxicity in human Keratinocytes in presence of UVA at 320 to 400 nm. Format: cell-based. As to conditions: light or radiation study.
A further data set concerns Melanocyte. Nature of the data set: Phototoxicity in human Melanocytes in presence of UVA at 320 to 400 nm. To be noted: light or radiation study. The class given is cell-based.
The nature of data set [17]: Cytotoxicity against human embryonic stem cells assessed as reduction in cell viability. The class given is cell-based.
The nature of data set [18]: Thermodynamic solubility of the compound. Format: physicochemical.
Data set [19] can be described thus: Dose normalized AUC (infinity) in rat at 2 mg/kg, po via gavage measured over 24 hrs. As to conditions: in vivo. The class given is ADME, organism-based.
The nature of data set [20]: Clearance in rat at 1 mg/kg, iv bolus measured over 24 hrs. As to conditions: in vivo. The class given is ADME, organism-based.
A short description of data set [21]: Terminal half life in rat at 1 mg/kg, iv bolus measured over 24 hrs. The class given is ADME, organism-based. To be noted: in vivo, read-out: beta t1/2 (converted).
Data set [22] is described as follows: Volume of distribution at steady state in rat at 1 mg/kg, iv bolus measured over 24 hrs. Format: ADME, organism-based. As to conditions: in vivo, read-out: Vdss.
The nature of data set [23]: Oral bioavailability in rat at 2 mg/kg via gavage measured over 24 hrs. To be noted: in vivo. Format: ADME, organism-based.
Data set [24] is described as follows: Dose normalized AUC (infinity) in minipig at 3 mg/kg, po via gavage measured over 240 hrs. As to conditions: pig, in vivo. Format: ADME, organism-based, Sus scrofa domesticus.
A short description of data set [25]: Clearance in minipig at 1 mg/kg, iv bolus measured over 240 hrs. To be noted: pig, in vivo. The class given is ADME, organism-based, Sus scrofa domesticus.
The nature of data set [26]: Terminal half life in minipig at 1 mg/kg, iv bolus measured over 240 hrs. To be noted: pig, in vivo, read-out: beta t1/2 (converted). The class given is ADME, organism-based, Sus scrofa domesticus.
A short description of data set [27]: Volume of distribution at steady state in minipig at 1 mg/kg, iv bolus measured over 240 hrs. To be noted: pig, in vivo, read-out: Vdss. Format: ADME, organism-based, Sus scrofa domesticus.
Data set [28] in a line: Oral bioavailability in minipig at 3 mg/kg via gavage measured over 240 hrs. The class given is ADME, organism-based, Sus scrofa domesticus. As to conditions: pig, in vivo.
Data set [29] concerns Mus musculus. Nature of the data set: In vivo modulation of gamma secretase in po dosed APP-Swedish transgenic mouse assessed as reduction in total Abeta42 production level in brain administered as single dose by ELISA or AlphaLISA assay. Format: functional, organism-based. To be noted: for pIC50: Mus musculus. For orientation: In an ELISA, binding on a coated surface is turned into a signal by an enzyme label.

A short description of data set [30]: Fraction unbound in 10% fetal calf serum. Format: ADME, cell-free, Bos taurus. To be noted: cattle.
The subject of data set [31] is Mus musculus. Briefly: In vivo modulation of gamma secretase in APP-Swedish transgenic mouse assessed as reduction in Abeta42 production by measuring remaining Abeta42 level at 3 mg/kg, po measured after 4 hrs by ELISA or AlphaLISA assay relative to control. The class given is functional.
For data set [32], the system named is Mus musculus. Briefly: In vivo modulation of gamma secretase in APP-Swedish transgenic mouse assessed as reduction in Abeta42 production by measuring remaining Abeta42 level at 10 mg/kg, po measured after 4 hrs by ELISA or AlphaLISA assay relative to control. Format: functional.
Data set [33] can be described thus: Covalent protein binding in human liver microsomes assessed per mg protein in presence of NADPH. The class given is ADME, Microsome.
Data set [34] deals with Mus musculus. Nature of the data set: In vivo modulation of gamma secretase in APP-Swedish transgenic mouse assessed as reduction in Abeta42 production by measuring remaining Abeta42 level at 30 mg/kg, po measured after 4 hrs by ELISA or AlphaLISA assay relative to control. Format: functional.

Voltage-gated inwardly rectifying potassium channel KCNH2, sequence (Q12809 whole entry): as the sequence (Q12809 whole entry) above

With `Cc1cc(N2C[C@H]3CC[C@@H](C2)[C@@H]3Nc2nc3c(OCC(F)F)ccc(C(F)(F)F)n3n2)ncn1`, the fraction unbound in data set [1] amounted to 0.028; in data set [2] it was 0.017; in data set [12], 0.01. Also, the results for the fIC50 (in [3]; in the data set filed under Mus musculus [5]) were 12 nM and 7 nM, respectively. Moreover, the pIC50 was 7.68 on Gamma-secretase; 7.96 in [4]; 5.35 in data set [10]; 4.51 with Keratinocyte; 4.51 in the data set on Melanocyte. For the same molecule, the log distribution coefficient (logD) in data set [6] came out at 3.9. Besides, the figures for the solubility in data set [7], in [15] and in data set [16] were 88 µg/mL (≈ 182 µM), 13 µg/mL (≈ 26.9 µM) and 466 µg/mL (≈ 964 µM), respectively. In addition, the hepatocyte CLint in data set [8] was found to be 2.3 µL/min/1e6 cells; in data set [9], 9.4 µL/min/1e6 cells; in data set [13] it was 5.8 µL/min/1e6 cells. The molecule further returned a concentration for an effect of 20% (IC20) against hERG (KCNH2) of 1.4 µM. Besides, the pKd in [11] is 4.64. Moreover, the Activity result in data set [14] and in data set [17] was “Non-Toxic” each time. This molecule also showed a Therm solubility in data set [18] of 3 µg/mL.

In the case of `Cc1nnc(N2C[C@H]3CC[C@@H](C2)[C@@H]3Nc2nc3c(O[C@@H](C)C(F)(F)F)ccc(C(F)(F)F)n3n2)o1`, the results for the fraction unbound in data set [1], in [2] and in data set [12] were 0.05, 0.043 and 0.059, respectively. Besides, the fIC50 in data set [3] is 19 nM; in the data set listed under Mus musculus [5], 14 nM. In addition, the pIC50 was 7.52 on Gamma-secretase; 7.68 in [4]; less than 4.70 in data set [10]; 7.40 in the data set with Mus musculus [29]; 4.60 in the data set on Keratinocyte; 4.60 in the data set with Melanocyte. Also, in data set [6], the logD was in the range of 3.8 to 3.85. For the same molecule, the solubility in [7] is 82 µg/mL (≈ 162 µM); in data set [15], 234 µg/mL (≈ 463 µM); in [16], 390 µg/mL (≈ 772 µM). The results for the hepatocyte CLint in [8], in data set [9] and in data set [13] were 1.1 µL/min/1e6 cells, 3.4 µL/min/1e6 cells and 6.3 µL/min/1e6 cells, respectively. Besides, the IC20 against hERG (KCNH2) came out at 5.4 µM. In data set [11], the pKd is less than 4.40. Besides, the AUC/dose in data set [19] turned out to be 1748 kg·ng·h/mL/mg; in [24], 1383 kg·ng·h/mL/mg. Further, the clearance in data set [20] was 3.8 mL/min/kg; in data set [25], 3.35 mL/min/kg. Also, the half-life in data set [21] was 8.1 h; in data set [26] it was 6.7 h. For the same molecule, the Vd in [22] was found to be 2.2 L/kg; in data set [27], 0.83 L/kg. Further, the bioavailability in [23] stood at 33%; in data set [28], 27%. The Activity entry in data set [14] and in [17] was “Non-Toxic” throughout. Besides, the Therm solubility in data set [18] is 85 µg/mL.

Turning to `Cc1nsc(N2CC[C@@H](Nc3nc4c(-c5ccc(F)c(F)c5F)cccn4n3)C(F)(F)C2)n1`, the fraction unbound came to 0.0003 in data set [1], 0.0029 in data set [2] and 0.06 in [30]. Further, the fIC50 in data set [3] came to 3.3 nM; in the data set listed under Mus musculus [5] it was 2.3 nM; with Mus musculus [29], 8 nM. Also, the pIC50 is 7.26 on Gamma-secretase, 7.42 in data set [4] and 5.54 with Mus musculus [29]. The “remaining Abeta42 level (% of control)” value in the data set with Mus musculus [31] worked out at 64%; in the data set on Mus musculus [32] it was 46%. Further, the PB in [33] came out at 149 pmol. Also, in the data set on Mus musculus [34], the Activity was found to be 31%.
